In data set [1] the target is Prostaglandin G/H synthase 1 (Homo sapiens) (UniProt P23219). The experiment in a line: COX-1 Eurofins SafetyScreen44 (BI). The note with it: Compound concentration 10.0 uM.
Data set [2] has as its target Prostaglandin G/H synthase 2 (Homo sapiens) (UniProt P35354). The experiment in a line: COX-2 Eurofins SafetyScreen44 (BI). The note with it: Compound concentration 10.0 uM.
Data set [3] addresses T1, 5-hydroxytryptamine receptor 1A (Homo sapiens) (UniProt P08908).
T1 sequence (whole entry): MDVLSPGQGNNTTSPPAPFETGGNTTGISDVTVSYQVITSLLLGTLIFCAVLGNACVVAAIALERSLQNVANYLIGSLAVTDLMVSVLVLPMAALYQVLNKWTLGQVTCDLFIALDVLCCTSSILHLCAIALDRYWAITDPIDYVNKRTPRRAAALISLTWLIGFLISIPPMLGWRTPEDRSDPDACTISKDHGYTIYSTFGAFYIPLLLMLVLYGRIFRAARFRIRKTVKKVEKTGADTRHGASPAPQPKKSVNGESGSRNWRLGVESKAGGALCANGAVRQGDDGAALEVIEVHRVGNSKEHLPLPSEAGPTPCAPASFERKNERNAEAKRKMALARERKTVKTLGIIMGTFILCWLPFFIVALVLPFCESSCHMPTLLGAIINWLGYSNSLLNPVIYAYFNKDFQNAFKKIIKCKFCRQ
The experiment in a line: 5HT1A/H Eurofins SafetyScreen44 (BI). As to conditions: Compound concentration 10.0 uM; call rule not given here.

Data set [4] concerns the target Beta-2 adrenergic receptor (Homo sapiens) (UniProt P07550). Nature of the data set: BETA2/HUM Eurofins SafetyScreen44 (BI). As to conditions: filed as antagonist, Compound concentration 10.0 uM.
For data set [5], the target named is L-type Ca2+ channel (dihydropyridine site), Voltage-dependent L-type calcium channel subunit alpha-1C (Rattus norvegicus, UniProt P22002). The experiment in a line: CA+/DHPSI/R Eurofins SafetyScreen44 (BI). The note with it: rat brain, probe [3H](+)PN200-110, compound concentration 10 uM, read-out: % Ctrl.
Chain of L-type Ca2+ channel (dihydropyridine site), Voltage-dependent L-type calcium channel subunit alpha-1C (P22002 whole entry): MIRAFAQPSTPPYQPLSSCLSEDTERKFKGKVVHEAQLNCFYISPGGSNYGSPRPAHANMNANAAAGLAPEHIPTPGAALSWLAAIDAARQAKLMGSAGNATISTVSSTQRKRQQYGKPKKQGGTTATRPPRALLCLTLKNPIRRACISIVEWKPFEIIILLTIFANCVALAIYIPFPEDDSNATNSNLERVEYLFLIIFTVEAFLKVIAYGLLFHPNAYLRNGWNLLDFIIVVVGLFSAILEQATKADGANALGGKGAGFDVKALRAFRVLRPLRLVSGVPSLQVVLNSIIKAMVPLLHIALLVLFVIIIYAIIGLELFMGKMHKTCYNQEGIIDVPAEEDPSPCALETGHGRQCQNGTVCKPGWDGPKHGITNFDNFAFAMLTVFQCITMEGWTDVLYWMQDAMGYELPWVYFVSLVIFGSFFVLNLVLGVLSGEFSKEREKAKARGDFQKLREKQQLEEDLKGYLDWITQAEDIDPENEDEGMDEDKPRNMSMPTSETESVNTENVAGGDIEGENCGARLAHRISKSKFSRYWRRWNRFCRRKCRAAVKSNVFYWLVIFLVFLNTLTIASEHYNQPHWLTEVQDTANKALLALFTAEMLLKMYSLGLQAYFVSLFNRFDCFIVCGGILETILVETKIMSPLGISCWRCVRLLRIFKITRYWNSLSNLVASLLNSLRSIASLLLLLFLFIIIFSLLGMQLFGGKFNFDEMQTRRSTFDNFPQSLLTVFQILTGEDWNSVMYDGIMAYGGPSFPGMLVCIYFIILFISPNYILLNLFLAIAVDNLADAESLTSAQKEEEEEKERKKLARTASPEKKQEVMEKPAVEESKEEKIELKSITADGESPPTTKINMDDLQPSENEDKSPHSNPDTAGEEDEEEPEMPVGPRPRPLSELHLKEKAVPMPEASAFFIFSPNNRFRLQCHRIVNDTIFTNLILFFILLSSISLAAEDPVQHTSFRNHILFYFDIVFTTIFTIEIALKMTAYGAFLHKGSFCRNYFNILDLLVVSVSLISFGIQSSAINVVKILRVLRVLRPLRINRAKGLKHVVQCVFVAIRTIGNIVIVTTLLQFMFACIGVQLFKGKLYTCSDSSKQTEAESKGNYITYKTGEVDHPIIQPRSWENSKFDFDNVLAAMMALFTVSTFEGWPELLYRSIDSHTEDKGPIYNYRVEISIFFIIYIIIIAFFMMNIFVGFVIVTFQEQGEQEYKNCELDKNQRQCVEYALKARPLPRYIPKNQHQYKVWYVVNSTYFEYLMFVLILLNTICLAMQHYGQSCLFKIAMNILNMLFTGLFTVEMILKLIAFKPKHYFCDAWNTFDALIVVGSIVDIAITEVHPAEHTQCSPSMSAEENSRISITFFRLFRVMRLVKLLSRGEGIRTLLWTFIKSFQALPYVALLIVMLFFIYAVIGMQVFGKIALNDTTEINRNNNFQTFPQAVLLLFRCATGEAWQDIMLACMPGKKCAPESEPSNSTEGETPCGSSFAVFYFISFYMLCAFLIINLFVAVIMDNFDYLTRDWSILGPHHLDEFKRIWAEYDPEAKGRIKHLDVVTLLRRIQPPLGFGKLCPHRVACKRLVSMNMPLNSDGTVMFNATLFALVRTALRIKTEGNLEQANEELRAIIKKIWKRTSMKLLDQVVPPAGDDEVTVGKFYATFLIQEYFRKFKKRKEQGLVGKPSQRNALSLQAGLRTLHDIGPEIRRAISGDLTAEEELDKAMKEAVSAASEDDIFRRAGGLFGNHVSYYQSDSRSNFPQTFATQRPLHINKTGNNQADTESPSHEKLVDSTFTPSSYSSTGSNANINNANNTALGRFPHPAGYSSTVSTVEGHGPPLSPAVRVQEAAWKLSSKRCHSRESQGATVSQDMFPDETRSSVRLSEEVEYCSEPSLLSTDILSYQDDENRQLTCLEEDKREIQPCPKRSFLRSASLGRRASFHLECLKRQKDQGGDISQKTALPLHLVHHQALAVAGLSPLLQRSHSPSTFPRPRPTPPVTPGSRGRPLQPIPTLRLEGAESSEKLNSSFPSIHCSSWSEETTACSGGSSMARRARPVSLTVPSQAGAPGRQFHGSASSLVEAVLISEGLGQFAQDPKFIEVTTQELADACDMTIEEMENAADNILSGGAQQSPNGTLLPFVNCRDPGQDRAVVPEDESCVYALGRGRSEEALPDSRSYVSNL
Data set [6] deals with Cholecystokinin receptor type A (Homo sapiens) (UniProt P32238). Nature of the data set: CCKA/H Eurofins SafetyScreen44 (BI). The note with it: Compound concentration 10.0 uM.
Data set [7] has as its target D(1A) dopamine receptor (Homo sapiens) (UniProt P21728). Nature of the data set: D1/H Eurofins SafetyScreen44 (BI). The note with it: filed as antagonist, Compound concentration 10.0 uM.
In data set [8] the target is Histamine H1 receptor (Homo sapiens) (UniProt P35367). Nature of the data set: H1/PYRIL/HS Eurofins SafetyScreen44 (BI). The note with it: Compound concentration 10.0 uM.
The target in data set [9] is Tyrosine-protein kinase Lck (Homo sapiens) (UniProt P06239). Nature of the data set: LCK_CE Eurofins SafetyScreen44 (BI). The note with it: Compound concentration 10.0 uM.
The target of data set [10] is T2, Muscarinic acetylcholine receptor M2 (Homo sapiens) (UniProt P08172).
T2 sequence (whole entry): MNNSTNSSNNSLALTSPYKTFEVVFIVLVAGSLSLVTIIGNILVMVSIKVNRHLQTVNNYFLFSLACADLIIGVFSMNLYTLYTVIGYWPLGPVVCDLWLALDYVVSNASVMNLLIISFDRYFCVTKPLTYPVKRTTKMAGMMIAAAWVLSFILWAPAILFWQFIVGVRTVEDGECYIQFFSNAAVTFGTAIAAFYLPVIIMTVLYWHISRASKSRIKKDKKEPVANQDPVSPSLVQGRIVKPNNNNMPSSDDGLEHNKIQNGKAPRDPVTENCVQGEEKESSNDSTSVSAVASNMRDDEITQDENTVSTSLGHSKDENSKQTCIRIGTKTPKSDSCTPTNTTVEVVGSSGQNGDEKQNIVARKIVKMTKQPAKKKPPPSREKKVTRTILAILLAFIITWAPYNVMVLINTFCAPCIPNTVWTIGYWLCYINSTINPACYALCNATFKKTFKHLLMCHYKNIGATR
Nature of the data set: M2/H Eurofins SafetyScreen44 (BI). As to conditions: filed as antagonist, Compound concentration 10.0 uM.

Data set [11] has as its target Mu-type opioid receptor (Homo sapiens) (UniProt P35372). The experiment in a line: MU/H Eurofins SafetyScreen44 (BI). The note with it: Compound concentration 10.0 uM.
Data set [12] has as its target Sodium-dependent serotonin transporter (Homo sapiens) (UniProt P31645). The experiment in a line: SLC6A4/H Eurofins SafetyScreen44 (BI). As to conditions: filed as antagonist, Compound concentration 10.0 uM.
Data set [13] has as its target Vasopressin V1a receptor (Homo sapiens) (UniProt P37288). Nature of the data set: V1A/HUM Eurofins SafetyScreen44 (BI). The note with it: Compound concentration 10.0 uM.
Data set [14] has as its target Zinc finger and BTB domain-containing protein 32 (Homo sapiens, UniProt Q9Y2Y4). The experiment in a line: SPR (ZBTB32), Ontario institute for cancer research.
Data set [15] concerns Voltage-gated K+ channel Kv1 (Rattus norvegicus). The experiment in a line: K+/VOLT/RA Eurofins SafetyScreen44 (BI). As to conditions: rat brain, probe [125I]a-dendrotoxin, read-out: % Ctrl.
Data set [16] deals with Cannabinoid receptor 1 (Homo sapiens) (UniProt P21554). Nature of the data set: CB1/CENTR/H Eurofins SafetyScreen44 (BI). As to conditions: Compound concentration 10.0 uM.
The target in data set [17] is Tyrosine-protein kinase ABL1 (Homo sapiens) (UniProt P00519). Nature of the data set: ABL1 Invitrogen Lab (UK) kinase screen (BI). As to conditions: Compound concentration 1.0 uM.
Data set [18] deals with Casein kinase I isoform alpha (Homo sapiens) (UniProt P48729). Nature of the data set: CSNK1A1 Invitrogen Lab (UK) kinase screen (BI). As to conditions: Compound concentration 1.0 uM.
Chain of Casein kinase I isoform alpha (Homo sapiens) (P48729 2-337 limits assumed): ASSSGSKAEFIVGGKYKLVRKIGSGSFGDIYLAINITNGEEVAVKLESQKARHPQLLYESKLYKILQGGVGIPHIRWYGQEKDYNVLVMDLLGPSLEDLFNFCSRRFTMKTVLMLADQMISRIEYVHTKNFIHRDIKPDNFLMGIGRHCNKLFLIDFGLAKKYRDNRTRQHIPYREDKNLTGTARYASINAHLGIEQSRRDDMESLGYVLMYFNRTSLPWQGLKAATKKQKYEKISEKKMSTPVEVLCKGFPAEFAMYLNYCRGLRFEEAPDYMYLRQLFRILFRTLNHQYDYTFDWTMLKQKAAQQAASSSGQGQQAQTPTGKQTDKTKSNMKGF
In data set [19] the target is Ribosomal protein S6 kinase beta-1 (Homo sapiens) (UniProt P23443). The experiment in a line: RPS6KB1 Invitrogen Lab (UK) kinase screen (BI). The note with it: Compound concentration 1.0 uM.
Data set [20] addresses 5-hydroxytryptamine receptor 1D (Homo sapiens) (UniProt P28221). The note with it: Compound concentration 10.0 uM.
Data set [21] concerns the target D(2) dopamine receptor (Homo sapiens) (UniProt P14416). As to conditions: Compound concentration 10.0 uM.
For data set [22], the target named is Sodium-dependent serotonin transporter (Homo sapiens) (UniProt P31645). The note with it: Compound concentration 10.0 uM.
Chain of Sodium-dependent serotonin transporter (Homo sapiens) (P31645 whole entry, looked up): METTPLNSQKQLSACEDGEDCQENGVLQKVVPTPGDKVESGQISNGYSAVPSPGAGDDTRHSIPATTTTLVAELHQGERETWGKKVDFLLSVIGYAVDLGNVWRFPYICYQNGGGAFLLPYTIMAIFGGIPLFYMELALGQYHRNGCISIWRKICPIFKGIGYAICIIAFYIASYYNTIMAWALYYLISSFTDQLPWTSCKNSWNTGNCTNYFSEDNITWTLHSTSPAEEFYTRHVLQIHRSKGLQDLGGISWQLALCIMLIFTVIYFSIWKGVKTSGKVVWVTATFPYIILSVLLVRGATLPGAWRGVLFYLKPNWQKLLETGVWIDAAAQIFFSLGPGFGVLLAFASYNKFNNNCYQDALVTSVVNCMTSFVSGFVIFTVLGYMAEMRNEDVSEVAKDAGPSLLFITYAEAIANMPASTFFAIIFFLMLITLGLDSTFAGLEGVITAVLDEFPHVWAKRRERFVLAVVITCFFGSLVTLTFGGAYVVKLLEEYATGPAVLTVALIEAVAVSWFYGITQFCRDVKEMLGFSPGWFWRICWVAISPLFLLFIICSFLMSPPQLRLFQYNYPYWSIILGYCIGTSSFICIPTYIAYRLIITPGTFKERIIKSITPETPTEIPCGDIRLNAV
Data set [23] deals with T3, Alpha-2A adrenergic receptor (Homo sapiens) (UniProt P08913).
T3 sequence (whole entry): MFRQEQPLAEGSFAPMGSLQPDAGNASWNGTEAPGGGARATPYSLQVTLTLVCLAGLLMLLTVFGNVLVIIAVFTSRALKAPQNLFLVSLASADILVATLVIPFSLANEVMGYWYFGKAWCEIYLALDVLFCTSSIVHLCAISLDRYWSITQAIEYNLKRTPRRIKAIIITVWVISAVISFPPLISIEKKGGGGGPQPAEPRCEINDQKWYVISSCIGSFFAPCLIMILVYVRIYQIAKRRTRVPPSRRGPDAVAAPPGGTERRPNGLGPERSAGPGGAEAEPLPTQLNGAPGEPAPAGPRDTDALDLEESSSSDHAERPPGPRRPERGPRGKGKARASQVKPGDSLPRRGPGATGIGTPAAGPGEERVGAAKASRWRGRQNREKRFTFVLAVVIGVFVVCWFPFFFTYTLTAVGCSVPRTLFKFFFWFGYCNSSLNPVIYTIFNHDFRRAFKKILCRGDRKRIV
As to conditions: Compound concentration 10.0 uM.

For data set [24], the target named is Alpha-2B adrenergic receptor (Homo sapiens) (UniProt P18089). The note with it: Compound concentration 10.0 uM.
Chain of Alpha-2B adrenergic receptor (Homo sapiens) (P18089 whole entry): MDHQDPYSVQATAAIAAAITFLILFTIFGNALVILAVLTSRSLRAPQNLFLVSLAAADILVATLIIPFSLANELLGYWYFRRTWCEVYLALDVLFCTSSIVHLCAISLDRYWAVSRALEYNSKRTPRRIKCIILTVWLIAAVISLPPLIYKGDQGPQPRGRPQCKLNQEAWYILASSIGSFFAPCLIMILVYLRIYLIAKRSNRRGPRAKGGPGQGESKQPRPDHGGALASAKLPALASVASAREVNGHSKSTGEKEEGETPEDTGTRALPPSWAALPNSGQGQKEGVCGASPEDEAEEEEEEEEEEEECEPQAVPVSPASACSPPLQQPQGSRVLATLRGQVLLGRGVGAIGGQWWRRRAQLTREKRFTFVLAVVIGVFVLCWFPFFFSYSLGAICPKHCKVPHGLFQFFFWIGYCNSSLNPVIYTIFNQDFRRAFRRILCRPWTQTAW
Data set [25] has as its target Sigma intracellular receptor 2 (Homo sapiens) (UniProt Q5BJF2). The note with it: Compound concentration 10.0 uM.
The target of data set [26] is 3-phosphoinositide-dependent protein kinase 1 (Homo sapiens) (UniProt O15530). The experiment in a line: PDK1 Invitrogen Lab (UK) kinase screen (BI). As to conditions: Compound concentration 1.0 uM.

Chain of D(2) dopamine receptor (Homo sapiens) (P14416 whole entry): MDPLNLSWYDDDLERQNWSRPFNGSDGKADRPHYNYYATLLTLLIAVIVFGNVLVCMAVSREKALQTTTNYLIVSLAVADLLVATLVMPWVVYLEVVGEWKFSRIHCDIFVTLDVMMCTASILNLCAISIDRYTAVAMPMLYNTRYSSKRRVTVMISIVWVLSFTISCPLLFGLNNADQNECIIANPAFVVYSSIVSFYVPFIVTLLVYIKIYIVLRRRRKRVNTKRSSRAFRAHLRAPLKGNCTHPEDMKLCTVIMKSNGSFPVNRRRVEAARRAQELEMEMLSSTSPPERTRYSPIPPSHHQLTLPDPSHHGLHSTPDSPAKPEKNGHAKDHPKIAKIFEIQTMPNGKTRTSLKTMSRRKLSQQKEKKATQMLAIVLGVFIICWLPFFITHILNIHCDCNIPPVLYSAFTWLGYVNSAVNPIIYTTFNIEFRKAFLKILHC
Chain of Beta-2 adrenergic receptor (Homo sapiens) (P07550 whole entry, looked up): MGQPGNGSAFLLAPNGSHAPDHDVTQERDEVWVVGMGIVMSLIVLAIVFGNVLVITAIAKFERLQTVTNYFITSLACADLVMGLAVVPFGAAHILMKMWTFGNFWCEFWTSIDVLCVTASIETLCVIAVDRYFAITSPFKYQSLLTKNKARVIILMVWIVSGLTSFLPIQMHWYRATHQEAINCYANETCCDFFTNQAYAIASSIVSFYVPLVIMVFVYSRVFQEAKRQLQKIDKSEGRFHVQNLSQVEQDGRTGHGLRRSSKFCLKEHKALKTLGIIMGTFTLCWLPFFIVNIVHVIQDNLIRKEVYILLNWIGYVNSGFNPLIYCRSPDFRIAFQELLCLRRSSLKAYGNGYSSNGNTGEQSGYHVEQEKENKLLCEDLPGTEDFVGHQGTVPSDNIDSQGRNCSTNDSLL
Chain of Sigma intracellular receptor 2 (Homo sapiens) (Q5BJF2 whole entry): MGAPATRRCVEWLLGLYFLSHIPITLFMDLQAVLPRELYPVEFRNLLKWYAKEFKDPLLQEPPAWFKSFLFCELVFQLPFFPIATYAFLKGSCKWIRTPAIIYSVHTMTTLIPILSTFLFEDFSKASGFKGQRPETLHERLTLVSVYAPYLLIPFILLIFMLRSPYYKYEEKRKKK
Chain of Vasopressin V1a receptor (Homo sapiens) (P37288 whole entry, looked up, the tested form may be a part): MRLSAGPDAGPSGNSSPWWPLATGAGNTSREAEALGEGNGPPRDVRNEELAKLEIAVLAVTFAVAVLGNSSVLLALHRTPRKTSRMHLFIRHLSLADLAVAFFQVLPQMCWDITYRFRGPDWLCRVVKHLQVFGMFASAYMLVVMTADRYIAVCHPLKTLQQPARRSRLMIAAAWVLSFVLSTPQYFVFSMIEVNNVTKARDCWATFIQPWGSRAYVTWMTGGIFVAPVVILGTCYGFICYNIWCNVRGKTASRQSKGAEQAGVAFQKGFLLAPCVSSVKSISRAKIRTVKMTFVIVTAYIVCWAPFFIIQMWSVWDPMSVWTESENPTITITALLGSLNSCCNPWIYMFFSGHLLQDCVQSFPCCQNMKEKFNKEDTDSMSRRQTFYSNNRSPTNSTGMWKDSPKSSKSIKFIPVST

With `C[C@@H]1C[C@H](C)CN(c2ncc(Cl)c(Nc3ccc4c(c3)cc(OC(C)(C)C(=O)O)c(=O)n4C)n2)C1`, the residual activity was 82% in [1]; 75% in data set [2]; 97% in [3]; 89% in data set [4]; 137% in data set [6]; 92% in data set [7]. For the same compound, the residual activity is 86% in data set [8]; 87% in [9]; 111% in [10]; 44% in data set [11]; 91% in data set [12]; 97% in data set [13]. Also, the values for the activity at 10 µM in [5] and in data set [15] were 104% (not active) and 97% (not active), respectively. In addition, the Kd result in data set [14] is listed as “No binding”.

The inhibition is the change of the read-out against control, counted positive when it falls. Regarding `CNC(=O)COc1cc2cc(Nc3nc(N4C[C@H](C)C[C@H](C)C4)ncc3Cl)ccc2n(C)c1=O`, the residual activity in [1] was 90%; in data set [2], 88%; in data set [3], 90%; in data set [4], 101%; in [16] it was 84%; in [6], 100%. The residual activity is 106% in data set [7]; 105% in data set [8]; 114% in data set [9]; 102% in data set [10]; 81% in data set [11]; 104% in data set [12]. Besides, the residual activity in [13] is 85%; in [17], 103%; in [18], 93%; in data set [19] it was 97%; in data set [26] it was 98%. For the same compound, in data set [5], the activity at 10 µM is 99% (not active). In addition, the inhibition was 13.7% in data set [20]; -8.96% in data set [21]; 2.53% in data set [22]; 5.49% in data set [23]; 7.35% in data set [24]; 17.1% in data set [25].

These data come from ChEMBL document CHEMBL5303763, “Data for DCP probe BI-3802” (2023).
